Experimental data reported in patent US9096615B2, “Bridged bicyclic amino thiazine dioxide compounds as inhibitors of beta-secretase and methods of use thereof” (AMGEN INC., priority 2013, dated 2015).
pIC50: −log10 of the molar value.

Tests used:
[1] = system: Aβ40 in conditioned medium of cells stably expressing Amyloid Precursor Protein (APP); assay: In vitro BACE cell-based assay (HEK cell assay, Aβ40 sandwich ELISA); conditions: Homo sapiens, HEK293; average IC50; read-out: BACE1 cell assay IC50
In short: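 APP-stable cells were cultured 24 h at 37 °C, then given compound as 10-point dose-response (top 100 μM or 10 μM; 0.1% DMSO final) for 24 h. Aβ40 in conditioned medium was measured by sandwich ELISA (pAb40 capture, biotinylated 6E10 detection, Eu time-resolved fluorescence). IC50 from percent inhibition versus concentration.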

human Bace2 protein = biological target: T1, human Bace2 protein (Homo sapiens, UniProt Q9Y5Z0); assay: In vitro enzymatic BACE2 FRET assay; assay type: biochemical; conditions: average IC50; read-out: BACE2 Enzyme assay IC50
T1 construct: V5 (C); 6-His (C)
T1 sequence (Q9Y5Z0 63-518): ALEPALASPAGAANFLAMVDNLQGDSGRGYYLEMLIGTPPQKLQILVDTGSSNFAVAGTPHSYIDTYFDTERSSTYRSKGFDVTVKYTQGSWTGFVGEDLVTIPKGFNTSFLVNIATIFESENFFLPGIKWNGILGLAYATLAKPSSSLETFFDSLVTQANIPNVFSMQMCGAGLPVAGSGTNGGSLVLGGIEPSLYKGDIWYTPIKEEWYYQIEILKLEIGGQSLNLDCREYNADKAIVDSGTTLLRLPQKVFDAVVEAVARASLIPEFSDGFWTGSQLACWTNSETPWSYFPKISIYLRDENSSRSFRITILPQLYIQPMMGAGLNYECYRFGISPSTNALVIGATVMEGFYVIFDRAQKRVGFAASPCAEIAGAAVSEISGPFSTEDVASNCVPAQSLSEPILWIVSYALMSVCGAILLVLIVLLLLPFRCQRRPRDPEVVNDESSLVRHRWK
In short: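 Human Bace2 with C-terminal V5/6-His tag (0.2 nM) pre-incubated 1 h with inhibitor in 0.05 M acetate pH 4.2, 10% DMSO, 100 uM genapol; reaction started with 50 nM FRET peptide substrate, run 1 h. Stopped with Tris to neutral pH; fluorescence increase from substrate cleavage measured.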

Row | pIC50 [1] | pIC50 (human Bace2 protein) | SMILES
1 | 8.30 | 9.10 | Cc1cc(Cl)cnc1C(=O)Nc1ccc(F)c([C@@]2(C)N=C(N)[C@@]3(CF)CC[C@@H]2S3(=O)=O)c1 [Example 88, N-(3-((1S,2R,5R)-4-amino-5-(fluoromethyl)-2-methyl-8,8-dioxido-8-thia-3-azabicyclo[3.2.1]oct-3-en-2-yl)-4-fluorophenyl)-5-chloro-3-methyl-2-pyridinecarboxamide]
2 | 8.10 | 8.40 | COc1cnc(C(=O)Nc2ccc(F)c([C@@]3(C)N=C(N)[C@@]4(CF)CC[C@@H]3S4(=O)=O)c2)c(C)n1 [Example 76, N-(3-((1S,2R,5R)-4-amino-5-(fluoromethyl)-2-methyl-8,8-dioxido-8-thia-3-azabicyclo[3.2.1]oct-3-en-2-yl)-4-fluorophenyl)-5-methoxy-3-methyl-2-pyrazinecarboxamide]
3 | 9.05 | 8.52 | C[C@]1(c2cc(Nc3nccc4nc(OCc5ncco5)cnc34)ccc2F)N=C(N)[C@@]2(CF)CC[C@@H]1S2(=O)=O [Example 104, N-(3-((1S,2R,5R)-4-amino-5-(fluoromethyl)-2-methyl-8,8-dioxido-8-thia-3-azabicyclo[3.2.1]oct-3-en-2-yl)-4-fluorophenyl)-2-(1,3-oxazol-2-ylmethoxy)pyrido[3,4-b]pyrazin-5-amine]
4 | 8.70 | 8.15 | COc1cnc(C(=O)Nc2ccc(F)c([C@@]3(C)N=C(N)[C@@]4(C)CC[C@@H]3S4(=O)=O)c2)cn1 [Example 61, N-(3-((1S,2R,5R)-4-amino-2,5-dimethyl-8,8-dioxido-8-thia-3-azabicyclo[3.2.1]oct-3-en-2-yl)-4-fluorophenyl)-5-methoxy-2-pyrazinecarboxamide]
